Data as given in patent US20260146025A1, “CRYSTALLINE POLYMORPHS OF MITAPIVAT AND MITAPIVAT HEMISULFATE” (TIANISH LABORATORIES PRIVATE LIMITED, priority 2022, published 2026).
Counter-ions that a name gives are not always drawn.

Experiment: Physical stability of polymorphs on storage, tested by PXRD
Assay type: physicochemical
Details: for physical stability (PXRD analysis): up to three months
Experimental: The powder X-ray diffraction patterns of said polymorphs of the invention were measured on a PANalytical X′Pert PRO powder diffractometer equipped with a goniometer of θ/θ configuration and X'Celerator detector. The Cu-anode X-ray tube was operated at 40 kV and 30 mA. The experiments were conducted over the 2θ range of 2.0°-50.0°, 0.0330 step size and 50 seconds step time.
In yet another embodiment, the physical stability of crystalline mitapivat hemi sulfate Form VII and crystalline mitapivat hemi sulfate Form XI were determined by storing the samples at 40° C./75% relative humidity (RH) and at 25° C./60% RH conditions for three months as shown in Table 1.

physical stability (PXRD analysis) (25° C./60% relative humidity (RH)) | physical stability (PXRD analysis) (40° C./75% relative humidity (RH)) | PXRD (physical stability) (stored at 25° C./60% RH, 1 month) | PXRD (physical stability) (stored at 25° C./60% RH, 2 months) | PXRD (physical stability) (stored at 25° C./60% RH, 3 months) | PXRD (physical stability) (stored at 40° C./75% RH, 1 month) | PXRD (physical stability) (stored at 40° C./75% RH, 3 months) | PXRD (physical stability) (stored at 40° C./75% RH, 2 months) | SMILES
physically stable | physically stable | Stable | Stable | Stable | Stable | Stable | – | O=C(c1ccc(NS(=O)(=O)c2cccc3cccnc23)cc1)N1CCN(CC2CC2)CC1 [Mitapivat hemi sulfate Form VII, 8-quinolinesulfonamide, N-[4-[[4(cyclopropylmethyl)-1-piperazinyl]carbonyl]phenyl]-, sulfate]
– | – | – | – | – | – | – | Stable | O=C(c1ccc(NS(=O)(=O)c2cccc3cccnc23)cc1)N1CCN(CC2CC2)CC1 [Mitapivat hemi sulfate Form XI, 8-quinolinesulfonamide, N-[4-[[4(cyclopropylmethyl)-1-piperazinyl]carbonyl]phenyl]-, sulfate]
